Columns and labels:
tumour = conditions: earlier work, literature; cited from earlier work
P388 leukaemia = experiment: P388 in vivo, life span of mice bearing intraperitoneal P388 leukaemia; design: species or system mice (F1 hybrid, DBA-2 male×C57 B1 female); conditions: for ILS (percentage increase in life span): at optimal dose, days 1, 5 and 9, controls survive 11 days on average, >20% statistically significant; for OD (O.D., optimal drug dose): solution in 0.1 ml of 30% v/v ethyl alcohol in water on days 1, 5 and 9, soluble acid addition salt
From the text: These have been shown by studies at the National Cancer Institute, U.S.A. to be useful for detecting agents with antitumor activity against clinical cancer (A. Goldin, J. M. Venditti, J. S. MacDonald, F. M. Mugia, J. E. Henney and V. T. De Vita, Europ.J. Cancer 17, 129-142, (1981). The abbreviations given in Table II are:
P388 in vivo--Tumour P388 cells were obtained as frozen stocks from Mason Research Inc., U.S.A. and passaged intraperitoneally according to standard methods (Cancer Chemother. Rep. 3, Part 3, page 9, 1972) in DBA-2 mice of either sex. Groups of six F1 hybrid mice (DBA-2 male×C57 B1 female, g weight 20±1 g) were injected intraperitoneally with 10^6 cells on day 0.
O.D.--optimal drug dose, in milligrams per kilogram, administered as a solution in 0.1 ml of 30% v/v ethyl alcohol in water on days 1, 5 and 9 after tumour inoculation. The drug is administered as a soluble acid addition salt.
ILS--percentage increase in life span of treated animals over that of groups of control animals injected with tumour alone. The average survival of control mice was 11 days. Values of ILS greater than 20% are considered statistically significant.

[1] = test system: murine L1210 leukaemia cells; experiment: L1210 in vitro, growth of cultured murine leukaemia cells; assay type: cell-based; conditions: Mus musculus, concentration that reduces counted number of leukaemia cells by 50% over 70 hours, read-out: ID50 (the source's name)
From the text: L1210 in vitro--The culture methods used are described in detail elsewhere (B. C. Baguley and R. Nash, Europ.J.Cancer, 17, 671-679 (1981). Acceptable reproducibility of data depends critically upon the maintenance of optimal culture conditions. L1210 cells were initially obtained from Dr. I. Wodinsky, Arthur D. Little Inc., Boston, U.S.A., under the auspices of the National Cancer Institute.
ID50 --the nanomolar concentration of drug which when added to cultures of murine L1210 leukaemia cells over a period of 70 hours, reduces the resultant counted number of leukaemia cells by 50% (B. C. Baguley and R. Nash, Europ.J.Cancer 17, 671-679 (1981).

In the case of `CS(=O)(=O)Nc1ccc(Nc2c3ccccc3nc3ccccc23)cc1` [AMSA, 4'-(9-acridinylamino) methanesulphonanilide], the antitumour effect (tumour) is listed as “marked antitumour effect”.
For `COc1cc(NS(C)(=O)=O)ccc1Nc1c2ccccc2nc2c1ccc1cccnc12` [Compound 1], the Active (P388 leukaemia) was “Yes”, the “ILS (percentage increase in life span)” value (P388 leukaemia) was 109% and the “OD (O.D., optimal drug dose)” value (P388 leukaemia) was 13.3 milligrams per kilogram. It also gave an IC50 [1] of 26 nM.
For `CS(=O)(=O)Nc1ccc(Nc2c3ccccc3nc3c2ccc2cccnc23)cc1` [Compound 2], the Active (P388 leukaemia) was “Yes”, the “ILS (percentage increase in life span)” value (P388 leukaemia) was 30% and the “OD (O.D., optimal drug dose)” value (P388 leukaemia) was 150 milligrams per kilogram. It also gave an IC50 [1] of 58 nM.
In the case of `COC(=O)Nc1ccc(Nc2c3ccccc3nc3c2ccc2cccnc23)c(OC)c1` [Compound 3], the Active (P388 leukaemia) is reported as “Yes”, the “ILS (percentage increase in life span)” value (P388 leukaemia) is reported as 95% and the “OD (O.D., optimal drug dose)” value (P388 leukaemia) is reported as 45 milligrams per kilogram. It also gave an IC50 [1] of 46 nM.
For `COC(=O)Nc1ccc(Nc2c3ccccc3nc3c2ccc2cccnc23)cc1` [Compound 4], the Active (P388 leukaemia) was “Yes”, the “ILS (percentage increase in life span)” value (P388 leukaemia) was 64% and the “OD (O.D., optimal drug dose)” value (P388 leukaemia) was 30 milligrams per kilogram. For the same compound, the IC50 [1] was 18 nM.
With `COP(=O)(Nc1ccc(Nc2c3ccccc3nc3c2ccc2cccnc23)cc1)OC` [Compound 5] the Active (P388 leukaemia) was “Yes”, the “ILS (percentage increase in life span)” value (P388 leukaemia) was 64% and the “OD (O.D., optimal drug dose)” value (P388 leukaemia) was 45 milligrams per kilogram. It also gave an IC50 [1] of 31 nM.

— US4474961A, “1,10[8,9-Benz]phenanthroline” (Development Finance Corporation of New Zealand, priority 1982, dated 1984)
